In patent US20250101038A1, “COMPOUNDS” (priority 2021, published 2025):
Where two headings read alike, the source gives them in different places.

Legend:
[1] = molecular target: T1, 5-HT2C receptor (Homo sapiens, UniProt P28335); assay: cell-based
T1 construct: host or cells: HEK293
T1 sequence (P28335 33-458): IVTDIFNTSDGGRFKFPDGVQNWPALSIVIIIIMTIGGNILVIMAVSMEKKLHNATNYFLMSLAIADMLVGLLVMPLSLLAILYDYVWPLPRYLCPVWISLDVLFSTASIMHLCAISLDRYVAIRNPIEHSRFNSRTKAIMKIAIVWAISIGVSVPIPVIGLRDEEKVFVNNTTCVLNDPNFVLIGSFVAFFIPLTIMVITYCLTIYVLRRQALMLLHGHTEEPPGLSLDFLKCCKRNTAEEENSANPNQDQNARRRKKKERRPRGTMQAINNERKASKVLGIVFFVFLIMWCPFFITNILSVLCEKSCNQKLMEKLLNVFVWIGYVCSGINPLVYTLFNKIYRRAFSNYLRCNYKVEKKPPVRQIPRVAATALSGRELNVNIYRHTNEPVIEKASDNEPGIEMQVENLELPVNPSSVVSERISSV

[2] = molecular target: T2, 5-HT2A receptor (Homo sapiens, UniProt P28223); assay: FLIPR Ca2+ flux functional assay, 5-HT2A; format: cell-based
T2 construct: host or cells: HEK293

[3] = molecular target: T3, 5-HT2B receptor (Homo sapiens, UniProt P41595); assay: cell-based
T3 construct: host or cells: CHO-K1

[4] = agonist activity, Ca2+ flux, HEK293 cells
[5] = agonist activity, Ca2+ flux, HEK293 cells, read-out: 5-HT2C EC50
[6] = agonist activity, Ca2+ flux, HEK293 cells, read-out: 5-HT2A EC50
[7] = agonist activity, Ca2+ flux, CHO-K1 cells
[8] = agonist activity, Ca2+ flux, CHO-K1 cells, read-out: 5-HT2B EC50

T2 sequence (P28223 whole entry): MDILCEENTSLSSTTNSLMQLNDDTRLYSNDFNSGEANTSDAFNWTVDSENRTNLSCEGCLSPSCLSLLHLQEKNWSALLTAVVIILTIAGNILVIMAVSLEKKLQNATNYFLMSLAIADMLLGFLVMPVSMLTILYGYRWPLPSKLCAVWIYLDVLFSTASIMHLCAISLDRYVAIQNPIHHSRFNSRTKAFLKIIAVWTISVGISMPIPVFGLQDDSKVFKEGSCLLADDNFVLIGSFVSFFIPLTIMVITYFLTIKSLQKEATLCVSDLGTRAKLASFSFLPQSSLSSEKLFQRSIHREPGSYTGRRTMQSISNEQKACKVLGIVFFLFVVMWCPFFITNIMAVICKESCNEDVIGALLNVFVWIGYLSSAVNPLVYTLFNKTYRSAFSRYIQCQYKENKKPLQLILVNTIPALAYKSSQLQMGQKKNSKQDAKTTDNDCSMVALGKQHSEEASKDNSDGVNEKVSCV
T3 sequence (P41595 whole entry): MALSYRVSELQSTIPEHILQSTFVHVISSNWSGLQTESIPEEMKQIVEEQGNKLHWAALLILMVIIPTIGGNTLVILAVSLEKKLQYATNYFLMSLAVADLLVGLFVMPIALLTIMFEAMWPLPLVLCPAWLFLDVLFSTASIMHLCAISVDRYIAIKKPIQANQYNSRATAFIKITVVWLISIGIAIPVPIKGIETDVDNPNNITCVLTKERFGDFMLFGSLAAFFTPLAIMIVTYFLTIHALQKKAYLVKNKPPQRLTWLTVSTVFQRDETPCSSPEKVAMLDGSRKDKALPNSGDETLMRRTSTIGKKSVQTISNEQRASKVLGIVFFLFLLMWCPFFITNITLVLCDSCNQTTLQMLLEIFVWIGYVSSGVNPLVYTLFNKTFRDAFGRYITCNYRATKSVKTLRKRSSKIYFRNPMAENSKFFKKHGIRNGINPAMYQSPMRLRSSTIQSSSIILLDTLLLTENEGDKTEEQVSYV

| SMILES | Emax [1, 4] [%] | EC50 [1, 5] [nM] | Emax [2, 4] [%] | EC50 [2, 6] [nM] | Emax [3, 7] [%] | EC50 [3, 8] [nM] | EC50 [1] [nM] | EC50 [2] [nM] | EC50 [3] [nM] |
| --- | --- | --- | --- | --- | --- | --- | --- | --- | --- |
| COc1cc(F)c2[nH]cc(CCN(C(C)C)C(C)C)c2c1 [Example P-118, N-(2-(7-fluoro-5-methoxy-1H-indol-3-yl)ethyl)-N-isopropylpropan-2-amine] | 97.1 | 695 | 82.2 | 17.4 | 95.2 | 66.3 | – | – | – |
| CN(C)CCc1c[nH]c2ccc3oc(=O)[nH]c3c12 [Example P-125, 8-(2-(dimethylamino)ethyl)-1,6-dihydro-2H-oxazolo[4,5-e]indol-2-one] | 56.7 | – | 75.5 | – | 42.5 | – | 538 | 48.5 | 14.3 |
| CCN(C)CCc1c[nH]c2ccc3ocnc3c12 [Example P-127, N-ethyl-N-methyl-2-(6H-oxazolo[4,5-e]indol-8-yl)ethan-1-amine] | 70.5 | – | 54 | – | 10.5 | – | 30.7 | 12 | > 10000 |
| CC(C)N(C)CCc1c[nH]c2ccc3ocnc3c12 [Example P-128, N-(2-(6H-oxazolo[4,5-e]indol-8-yl)ethyl)-N-methylpropan-2-amine] | 58 | 67.8 | 83.8 | 14.3 | 16.8 | > 10000 | – | – | – |
| CCN(CC)CCc1c[nH]c2ccc3ocnc3c12 [Example P-129, N,N-diethyl-2-(6H-oxazolo[4,5-e]indol-8-yl)ethan-1-amine] | 93.1 | – | 64 | – | 41.1 | – | 72.7 | 14.4 | 14.9 |
| CC(C)N(CCc1c[nH]c2ccc3ocnc3c12)C(C)C [Example P-130, N-(2-(6H-oxazolo[4,5-e]indol-8-yl)ethyl)-N-isopropylpropan-2-amine] | 104 | 203 | 87.5 | 18.1 | 114 | 7.54 | – | – | – |
| Cc1nc2c(ccc3[nH]cc(CCN(C)C)c32)o1 [Example P-131, N,N-dimethyl-2-(2-methyl-6H-oxazolo[4,5-e]indol-8-yl)ethan-1-amine] | 90.1 | – | 97.2 | – | 3.93 | – | 15.8 | 10.6 | > 10000 |
| CCN(C)CCc1c[nH]c2ccc3oc(C)nc3c12 [Example P-132, N-ethyl-N-methyl-2-(2-methyl-6H-oxazolo[4,5-e]indol-8-yl)ethan-1-amine] | 85.7 | – | 69.1 | – | 11.4 | – | 177 | 20.6 | > 10000 |
| Cc1nc2c(ccc3[nH]cc(CCN(C)C(C)C)c32)o1 [Example P-133, N-methyl-N-(2-(2-methyl-6H-oxazolo[4,5-e]indol-8-yl)ethyl)propan-2-amine] | 72.6 | 894 | 78.4 | 27.9 | 22.4 | 68.6 | – | – | – |
| CCN(CC)CCc1c[nH]c2ccc3oc(C)nc3c12 [Example P-134, N,N-diethyl-2-(2-methyl-6H-oxazolo[4,5-e]indol-8-yl)ethan-1-amine] | 91.3 | – | 77.5 | – | 56.4 | – | 429 | 20.3 | 59.9 |
| Cc1nc2c(ccc3[nH]cc(CCN(C(C)C)C(C)C)c32)o1 [Example P-135, N-isopropyl-N-(2-(2-methyl-6H-oxazolo[4,5-e]indol-8-yl)ethyl)propan-2-amine] | 99.2 | 2070 | 78.3 | 25.1 | 91.3 | 31.4 | – | – | – |
| CN(C)CCc1c[nH]c2ccc(F)c(F)c12 [Example P-142, 2-(4,5-difluoro-1H-indol-3-yl)-N,N-dimethylethan-1-amine] | 118 | – | 70 | – | 2.92 | – | – | – | – |
